Test results taken from article PMC2621304 (Analytical biochemistry, 2008).

What was measured:
Rat AhR [1] = target: T1, Rat AhR (Rattus norvegicus, UniProt P41738); experiment: Competitive binding assay against [3H]-TCDD, recombinant rat AhR
T1 sequence (P41738 10-853): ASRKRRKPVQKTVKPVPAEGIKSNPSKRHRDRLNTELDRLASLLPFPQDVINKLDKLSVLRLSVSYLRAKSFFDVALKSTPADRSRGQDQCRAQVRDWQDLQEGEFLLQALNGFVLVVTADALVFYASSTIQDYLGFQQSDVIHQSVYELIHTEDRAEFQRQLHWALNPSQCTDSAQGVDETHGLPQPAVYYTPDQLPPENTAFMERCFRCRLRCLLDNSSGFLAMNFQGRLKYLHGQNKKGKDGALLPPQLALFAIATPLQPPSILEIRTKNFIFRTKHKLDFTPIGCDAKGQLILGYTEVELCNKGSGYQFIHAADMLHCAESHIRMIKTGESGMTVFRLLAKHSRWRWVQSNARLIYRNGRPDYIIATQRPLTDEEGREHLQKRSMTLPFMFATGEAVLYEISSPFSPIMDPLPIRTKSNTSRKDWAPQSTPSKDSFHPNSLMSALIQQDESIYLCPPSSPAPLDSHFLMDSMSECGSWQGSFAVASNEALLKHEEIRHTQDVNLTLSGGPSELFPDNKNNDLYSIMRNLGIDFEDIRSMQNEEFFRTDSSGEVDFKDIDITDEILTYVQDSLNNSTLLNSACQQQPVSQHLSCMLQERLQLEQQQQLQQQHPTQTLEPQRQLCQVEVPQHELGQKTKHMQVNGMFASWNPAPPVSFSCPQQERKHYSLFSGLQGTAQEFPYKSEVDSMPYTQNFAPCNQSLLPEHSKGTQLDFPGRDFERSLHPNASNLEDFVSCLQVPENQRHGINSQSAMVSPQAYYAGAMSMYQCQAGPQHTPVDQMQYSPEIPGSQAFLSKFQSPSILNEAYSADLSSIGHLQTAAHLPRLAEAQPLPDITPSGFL

Human AhR [2] = target: T2, Human AhR (Homo sapiens, UniProt P35869); experiment: Competitive binding assay against [3H]-TCDD, recombinant human AhR
T2 sequence (P35869 11-848): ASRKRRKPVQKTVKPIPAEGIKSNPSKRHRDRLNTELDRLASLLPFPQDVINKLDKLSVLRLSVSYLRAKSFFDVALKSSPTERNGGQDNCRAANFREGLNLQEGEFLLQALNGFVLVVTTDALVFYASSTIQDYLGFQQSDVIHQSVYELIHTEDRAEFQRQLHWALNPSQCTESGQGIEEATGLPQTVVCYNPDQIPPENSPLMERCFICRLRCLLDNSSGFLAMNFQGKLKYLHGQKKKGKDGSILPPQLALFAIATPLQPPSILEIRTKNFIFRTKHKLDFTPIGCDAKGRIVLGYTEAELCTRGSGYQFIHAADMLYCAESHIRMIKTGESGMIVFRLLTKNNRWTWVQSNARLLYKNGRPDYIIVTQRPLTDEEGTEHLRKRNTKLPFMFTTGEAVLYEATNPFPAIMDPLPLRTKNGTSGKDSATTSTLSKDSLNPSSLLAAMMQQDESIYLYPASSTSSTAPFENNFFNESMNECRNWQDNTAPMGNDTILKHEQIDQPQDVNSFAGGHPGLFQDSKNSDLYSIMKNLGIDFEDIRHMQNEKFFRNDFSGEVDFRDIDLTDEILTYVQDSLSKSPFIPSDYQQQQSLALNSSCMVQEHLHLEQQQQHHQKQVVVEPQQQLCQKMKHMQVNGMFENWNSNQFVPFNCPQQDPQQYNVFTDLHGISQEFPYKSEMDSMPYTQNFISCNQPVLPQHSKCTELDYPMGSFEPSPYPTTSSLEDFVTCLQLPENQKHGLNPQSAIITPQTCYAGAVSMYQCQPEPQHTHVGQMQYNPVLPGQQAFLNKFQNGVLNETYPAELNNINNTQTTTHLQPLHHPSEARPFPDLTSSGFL

[3] = Solubility of TCDD in protein solution; format: physicochemical; conditions: unpublished data
Rat AhR [4] = target: T1, Rat AhR; experiment: [3H]-TCDD saturation binding, recombinant rat AhR in Sf9 cytosol
AhR in rat liver cytosol = target: T3, AhR in rat liver cytosol (Rattus norvegicus, UniProt P41738); experiment: [3H]-TCDD saturation binding, rat liver cytosol
T3 sequence (P41738 10-853): T1 sequence (P41738 10-853)

Human AhR [5] = target: T2, Human AhR; experiment: [3H]-TCDD saturation binding, recombinant human AhR in Sf9 cytosol; conditions: optimised conditions

Structure (SMILES) | Ki (Rat AhR [1]) [nM] | Ki (Human AhR [2]) [nM] | potency relative to TCDF and PCDD, human AhR (Human AhR [2]) | further results
Clc1ccc(-c2cc(Cl)c(Cl)c(Cl)c2)cc1Cl [PCB126, polychlorinated biphenyl 126] | 24.7 | 736 |  | fold less potent than TCDD, rat AhR (Rat AhR [1]; relative to TCDD): ~50 fold; fold less potent as a ligand than TCDD, human AhR (Human AhR [2]; relative to TCDD): ~40 fold
Clc1cc2c(cc1Cl)Oc1cc(Cl)c(Cl)cc1O2 [TCDD, 2,3,7,8-tetrachlorodibenzo-p-dioxin] | 0.55 | 15.4 | two-fold less potent | solubility in protein solution [3]: declines dramatically at concentrations much in excess of 2 nM; Kd (Rat AhR [4]; Kd (typical experiment, Fig. 5A), MOI of 0.1, typical experiment): 1.35 nM; Kd (Rat AhR [4]; Kd for TCDD, recombinant rat AhR, MOI of 0.1, n=6 independent determinations): 1.34 ± 0.32 nM; Bmax, recombinant rat AhR (Rat AhR [4]; MOI of 0.1, [3H]-TCDD): 1.5±0.37 pmol/ mg cytosolic protein; Bmax (typical experiment, Fig. 5A) (Rat AhR [4]; MOI of 0.1, typical experiment): 1.83 pmol/mg; Kd (AhR in rat liver cytosol; apparent Kd for TCDD, saturation binding, mean ± Standard deviation, n=6): 1 ± 0.45 nM; maximal binding capacity (Bmax) (AhR in rat liver cytosol; per mg cytosolic protein, [3H]-TCDD): 52 fmol/mg; Kd (Human AhR [5]; Kd for TCDD, human AhR, n=6): 2.77 ± 0.94 nM; Bmax, human AhR (Human AhR [5]; [3H]-TCDD): 0.46±0.12 pmol/mg cytosolic protein
Clc1cc2oc3cc(Cl)c(Cl)cc3c2cc1Cl [2,3,7,8-tetrachlorodibenzofuran] | 0.36 | 6.27 |  | 
Clc1cc2c(cc1Cl)Oc1c(cc(Cl)c(Cl)c1Cl)O2 [1,2,3,7,8-pentachlorodibenzo-p-dioxin] | 0.46 | 7.62 |  | 
Clc1cc2oc3c(Cl)c(Cl)c(Cl)cc3c2cc1Cl [2,3,4,7,8-pentachlorodibenzofuran] | 1.5 | 14.1 | two-fold less potent | potency as ligand relative to PCDD, rat AhR (Rat AhR [1]; relative to PCDD): three-fold less potent
